From patent US8293768B2, “Organic compounds” (Novartis AG, priority 2006, dated 2012) come the findings set out here.

Consider `Cc1nc(-n2cnn(Cc3ccc(F)cc3)c2=O)sc1C(=O)NCc1cccnc1` [Example 21.3, 2-(1-(4-fluorobenzyl)-5-oxo-1H-1,2,4-triazol-4(5H)-yl)-4-methyl-N-(pyridin-3-ylmethyl)thiazole-5-carboxamide], for which the melting point (as a rule, the temperature, or range, at which the solid turns liquid) fell in the range of 178 to 179 °C.

In the case of `Cc1nc(N2CCN(Cc3ccc(F)cc3)C2=O)sc1C(=O)NCc1ccccn1` [Example 32.21, 2-(3-(4-fluorobenzyl)-2-oxoimidazolidin-1-yl)-4-methyl-N-(pyridin-2-ylmethyl)thiazole-5-carboxamide], the melting point lay within 183 to 185 °C.

`Cc1nc(-n2cnn(Cc3ccc(OC(F)F)cc3)c2=O)sc1C(=O)NCc1cccnc1` [Example 21.1, 2-(1-(4-(difluoromethoxy)benzyl)-5-oxo-1H-1,2,4-triazol-4(5H)-yl)-4-methyl-N-(pyridin-3-ylmethyl)thiazole-5-carboxamide] yielded a melting point of 151 to 152 °C.

`Cc1csc(N2CCN(Cc3ccc(C(=O)O)cc3)C2=O)n1` [Example 6.23, 4-((3-(4-methylthiazol-2-yl)-2-oxoimidazolidin-1-yl)methyl)benzoic acid] displayed a melting point of 222 to 224 °C.

In turn, `Cc1nc(N2CCN(Cc3ccc(C(F)(F)F)cc3)C2=O)sc1CO` [Example 41, 1-(5-(hydroxymethyl)-4-methylthiazol-2-yl)-3-(4-(trifluoromethyl)benzyl)imidazolidin-2-one] returned a melting point of 153 to 154 °C.

In turn, `CCOC(=O)c1sc(N2C[C@@H](Cc3ccccc3)NC2=O)nc1C` [Example 11, (R)-ethyl 2-(4-benzyl-2-oxoimidazolidin-1-yl)-4-methylthiazole-5-carboxylate] displayed a melting point of 102 to 103 °C.

With `Cc1nc(N2CCN(Cc3ccc(OC(F)(F)F)cc3)C2=O)sc1C(=O)NCCc1cccnc1` [Example 9.32, 4-methyl-2-(2-oxo-3-(4-(trifluoromethoxy)benzyl)imidazolidin-1-yl)-N-(2-(pyridin-3-yl)ethyl)thiazole-5-carboxamide], the melting point was 172 to 173 °C.

In turn, `Cc1nc(N2CCN(Cc3ccc(F)cc3)C2=O)sc1C(=O)NCc1cccnn1` [Example 32.15, 2-(3-(4-fluorobenzyl)-2-oxoimidazolidin-1-yl)-4-methyl-N-(pyridazin-3-ylmethyl)thiazole-5-carboxamide] gave a melting point of 222 to 225 °C.

Regarding `Cc1nc(N2CCN(Cc3nccc4ccccc34)C2=O)sc1C(=O)NCc1cccnc1` [Example 32.1, 2-(3-(isoquinolin-1-ylmethyl)-2-oxoimidazolidin-1-yl)-4-methyl-N-(pyridin-3-ylmethyl)thiazole-5-carboxamide], the melting point was 151 to 153 °C.

`CCOC(=O)c1sc(N2CCNC2=O)nc1C` [Example 3, ethyl 4-methyl-2-(2-oxoimidazolidin-1-yl)thiazole-5-carboxylate] returned a melting point of 197 to 199 °C.

`Cc1nc(N2CCN(Cc3ccccc3)S2(=O)=O)sc1C(=O)NCc1cccnc1` [Example 27.2, 2-(5-benzyl-1,1-dioxido-1,2,5-thiadiazolidin-2-yl)-4-methyl-N-(pyridin-3-ylmethyl)-1,3-thiazole-5-carboxamide] returned a melting point of 140 to 142 °C.

The compound `Cc1nc(N2CCN(Cc3cccc4cccnc34)C2=O)sc1C(=O)NCc1cccnc1` [Example 32.2, 4-methyl-2-(2-oxo-3-(quinolin-8-ylmethyl)imidazolidin-1-yl)-N-(pyridin-3-ylmethyl)thiazole-5-carboxamide] came in with a melting point of 225 to 228 °C.

Compound `Cc1cc(N2CCN(CC(=O)c3ccccc3)C2=O)sc1C(=O)NCc1cccnc1` [Example 55.1, 3-methyl-5-(2-oxo-3-(2-oxo-2-phenylethyl)imidazolidin-1-yl)-N-(pyridin-3-ylmethyl)thiophene-2-carboxamide] came in with a melting point of 174 to 176 °C.

In turn, `Cc1nc(N2CCN(Cc3ccc(C(F)(F)F)cc3)C2=O)sc1-c1cc[nH]n1` [Example 38, 1-(4-methyl-5-(1H-pyrazol-3-yl)thiazol-2-yl)-3-(4-(trifluoromethyl)-benzyl)imidazolidin-2-one] yielded a melting point of 212 to 213 °C.

As for `Cc1nc(N2CCN(Cc3ccccc3)C2=O)sc1C(=O)O` [Example 6.2, 2-(3-benzyl-2-oxoimidazolidin-1-yl)-4-methylthiazole-5-carboxylic acid], the melting point fell in the range of 248 to 249 °C.

`Cc1nc(N2CCN(Cc3ccccc3)C2=O)sc1C(=O)NCc1ccncc1` [Example 9.9, 2-(3-benzyl-2-oxoimidazolidin-1-yl)-4-methyl-N-(pyridin-4-ylmethyl)thiazole-5-carboxamide] yielded a melting point of 96 to 97 °C.

Consider `Cc1nc(N2CCN(Cc3ccccc3)C2=O)sc1C(=O)NCc1ccccc1F` [Example 9.1, 2-(3-benzyl-2-oxoimidazolidin-1-yl)-N-(2-fluorobenzyl)-4-methylthiazole-5-carboxamide], for which the melting point lay in the range of 167 to 168 °C.

As for `Cc1ncc(CNC(=O)c2sc(-n3cnn(Cc4ccc(F)cc4)c3=O)nc2C)s1` [Example 21.11, 2-(1-(4-fluorobenzyl)-5-oxo-1H-1,2,4-triazol-4(5H)-yl)-4-methyl-N-((2-methylthiazol-5-yl)methyl)thiazole-5-carboxamide], the melting point fell in the range of 176 to 177 °C.

Regarding `Cc1nc(-n2ccn(Cc3ccc(F)cc3)c2=O)sc1C(=O)NCc1cccnc1` [Example 17.2, 2-(3-(4-fluorobenzyl)-2-oxo-2,3-dihydro-1H-imidazol-1-yl)-4-methyl-N-(pyridin-3-ylmethyl)thiazole-5-carboxamide], the melting point was 158 to 159 °C.

On to `Cc1cc(-n2cnn(Cc3ccc(F)cc3)c2=O)sc1C(=O)NCc1cccnc1` [Example 31, 5-(1-(4-fluorobenzyl)-5-oxo-1H-1,2,4-triazol-4(5H)-yl)-3-methyl-N-(pyridin-3-ylmethyl)thiophene-2-carboxamide], for which the melting point was in the range of 180 to 182 °C.

Compound `CCOC(=O)c1sc(N2CCN(Cc3ccccc3)C2=O)nc1C` [Example 5, ethyl 2-(3-benzyl-2-oxoimidazolidin-1-yl)-4-methylthiazole-5-carboxylate] yielded a melting point of 122 to 124 °C.

On to `Cc1nc(-n2cnn(Cc3ccc(C(F)(F)F)o3)c2=O)sc1C(=O)NCc1cccnc1` [Example 21.6, 4-methyl-2-(5-oxo-1-((5-(trifluoromethyl)furan-2-yl)methyl)-1H-1,2,4-triazol-4(5H)-yl)-N-(pyridin-3-ylmethyl)thiazole-5-carboxamide], for which the melting point lay in the range of 124 to 125 °C.

In turn, `Cc1nc(N2CCN(Cc3ccccc3)C2=O)sc1C(=O)NCc1ccc(F)cc1F` [Example 9.4, 2-(3-benzyl-2-oxoimidazolidin-1-yl)-N-(2,4-difluorobenzyl)-4-methylthiazole-5-carboxamide] displayed a melting point of 157 to 158 °C.

`Cc1nc(N2CCN(Cc3ccc4nsnc4c3)C2=O)sc1C(=O)NCc1cccnc1` [Example 32.7, 2-(3-(benzo[c][1,2,5]thiadiazol-5-ylmethyl)-2-oxoimidazolidin-1-yl)-4-methyl-N-(pyridin-3-ylmethyl)thiazole-5-carboxamide] displayed a melting point of 105 to 107 °C.

Take `Cc1cc(N2CCN(CC(O)c3ccccc3)C2=O)sc1C(=O)NCc1cccnc1` (stereo not shown) [Example 57, 5-(3-(2-hydroxy-2-phenylethyl)-2-oxoimidazolidin-1-yl)-3-methyl-N-(pyridin-3-ylmethyl)thiophene-2-carboxamide]: the melting point is 75 °C (dec.).

`Cc1nc(N2CCN(Cc3ccc(C(F)(F)F)o3)C2=O)sc1C(=O)NCc1ccccc1` [Example 23.4, N-benzyl-4-methyl-2-(2-oxo-3-((5-(trifluoromethyl)furan-2-yl)methyl)imidazolidin-1-yl)thiazole-5-carboxamide]: the melting point fell in the range of 143 to 145 °C.

`Cc1nc(-n2cnn(CCO)c2=O)sc1C(=O)NCc1cccnc1` [Example 19.9, 2-(1-(2-hydroxyethyl)-5-oxo-1H-1,2,4-triazol-4(5H)-yl)-4-methyl-N-(pyridin-3-ylmethyl)thiazole-5-carboxamide] showed a melting point of 201 to 202 °C.

The compound `Cc1nc(N2CCN(CC3CCC3)C2=O)sc1C(=O)NCc1cccnc1` [Example 9.37, 2-(3-(cyclobutylmethyl)-2-oxoimidazolidin-1-yl)-4-methyl-N-(pyridin-3-ylmethyl)thiazole-5-carboxamide] showed a melting point of 136 to 137 °C.

In turn, `Cc1nc(N2CCN(Cc3ccccc3)C2=O)sc1C(=O)NCc1ccc(F)c(F)c1` [Example 9.5, 2-(3-benzyl-2-oxoimidazolidin-1-yl)-N-(3,4-difluorobenzyl)-4-methylthiazole-5-carboxamide] returned a melting point of 152 to 153 °C.

With `Cc1nc(N2CCN(Cc3ccc(F)cc3)C2=O)sc1C(=O)NCc1ccc(C(F)F)o1` [Example 9.44, N-((5-(difluoromethyl)furan-2-yl)methyl)-2-(3-(4-fluorobenzyl)-2-oxoimidazolidin-1-yl)-4-methylthiazole-5-carboxamide], the melting point lay within 173 to 174 °C.

`COC(=O)c1cccc(CN2CCN(c3nc(C)c(C(C)=O)s3)C2=O)c1` [Example 5.17, methyl 3-((3-(5-acetyl-4-methylthiazol-2-yl)-2-oxoimidazolidin-1-yl)methyl)benzoate] returned a melting point of 122 to 124 °C.

In turn, `Cc1nc(N2CCN(Cc3ccc(C(F)(F)F)cc3)C2=O)sc1-c1cnco1` [Example 43, 1-(4-methyl-5-(oxazol-5-yl)thiazol-2-yl)-3-(4-(trifluoromethyl)benzyl)-imidazolidin-2-one] came in with a melting point of 160 to 162 °C.

Take `Cc1nc(N2CCN(Cc3cccnc3)C2=O)sc1C(=O)NCc1ccccc1` [Example 32.9, N-benzyl-4-methyl-2-(2-oxo-3-(pyridin-3-ylmethyl)imidazolidin-1-yl)thiazole-5-carboxamide]: the melting point lay in the range of 110 to 113 °C.

`Cc1nc(N2CCN(Cc3ccccc3)S2(=O)=O)sc1C(=O)NCc1ccccc1` [Example 27.1, N-benzyl-2-(5-benzyl-1,1-dioxido-1,2,5-thiadiazolidin-2-yl)-4-methyl-1,3-thiazole-5-carboxamide] displayed a melting point of 135 to 137 °C.
